Measured values as given in patent US20230240973A1, “CANNABIS SATIVA EXTRACTS AND THEIR USES” (LINNEA SA, priority 2020, published 2023).

How the values were obtained:
IL-8 [1] = test: IL-8 secretion in TNF-α stimulated HaCaT cells; type: cell-based; settings: human keratinocytes (HaCaT), TNF-α 10 ng/ml
Experimental: (§1) To evaluate the anti-inflammatory activity of the extract according to the present invention, the in vitro effect after exposure to pro-inflammatory stimuli on the expression levels of factors known to be involved in inflammatory processes was evaluated.
(§2) In particular, the following were chosen as inflammation markers: • IL-8, a cytokine secreted by keratinocytes and fibroblasts following inflammation and particularly involved in skin diseases such as psoriasis; • MMP-9, a metalloprotease which degrades the extracellular matrix and which is activated following chronic skin inflammations such as dermatitis and psoriasis; • VEGF, the release of which by keratinocytes leads to the formation of the classic psoriatic plaques in patients suffering from this pathology.

MMP-9 [2] = test: MMP-9 secretion in TNF-α stimulated HaCaT cells; type: cell-based; settings: human keratinocytes (HaCaT), TNF-α 10 ng/ml
Experimental: as §1, §2

HaCaT cells = test: MTT cytotoxicity assay on HaCaT cells; type: cell-based, human; settings: 6 or 24 hours (FIG. 4)
Experimental: (§3) The cytotoxicity tests were performed using the MTT assay, capable of measuring the mitochondrial succinic dehydrogenase enzyme, whose activity indicates cell viability, on human keratinocytes or fibroblasts incubated with the Cannabis sativa extract according to example 2 and with pure CBD. The integrity of the morphology before and after 6 and 24 hour incubation was assessed by light microscopy.
(§4) HaCaT cells, spontaneously immortalized human keratinocyte line (Boukamp et al., 1988) and normal human dermal fibroblasts (HDF) were cultured in DMEM (Gibco, Life Technologies, Monza, Italy) supplemented with 10% heat inactivated fetal bovine serum (Euroclone SpA, Milan, Italy), L-glutamine (2 mM; Gibco, Life Technologies, Monza, Italy), penicillin (100 U/ml), and streptomycin ([…]; Gibco, Life Technologies, Monza, Italy), at 37° C. in a humidified atmosphere containing 5% CO2. Every 4 days, at 80-90% confluence, the cells were detached using 0.25% trypsin-EDTA (Gibco, Life Technologies, Monza, Italy), counted and placed in a new flask at a density of 1.5×10^6 cells per flask, to allow for growth. For the purpose of the present analyses, the cells were seeded in 24-well plates and incubated with the extract according to the present invention or pure CBD at increasing concentrations. […]

MMP-9 [3] = test: MMP-9 release in TNF-α stimulated HDF cells; type: cell-based; settings: human fibroblasts (HDF)
From the text: (§5) FIG. 7: effect evaluated on TNF-α stimulated HDF cells (A) on transcription induced by NF-kB and on release of (B) IL8, (C) MMP-9 following exposure to the indicated doses of the composition according to the present invention and, for comparative purposes, (D) on NF-kB-induced transcription and (E) IL8, (F) MMP-9 release following exposure to pure CBD.
as §1, §2
(§6) FIG. 7 reports the results obtained in human fibroblasts.

HDF cells = test: MTT cytotoxicity assay on HDF cells; type: cell-based, human; settings: 6 or 24 hours (FIG. 3)
Experimental: as §3, §4

VEGF = VEGF secretion in TNF-α stimulated HaCaT cells; type: cell-based; settings: human keratinocytes (HaCaT), TNF-α 10 ng/ml
Experimental: as §1, §2

NF-kB = NF-kB driven transcription in TNF-α stimulated HaCaT cells; type: cell-based; settings: human keratinocytes (HaCaT), read-out: IC50 of inhibition of NF-kB-driven transcription
Experimental: as §1
The nuclear transcription factor NF-kB is activated by pro-inflammatory stimuli and activates the transcription of genes that amplify the inflammatory process, such as MMP-9, cytokines and growth factors such as VEGF.

IL-8 [4] = test: IL-8 release in TNF-α stimulated HDF cells; type: cell-based; settings: human fibroblasts (HDF)
From the text: as §5, §1, §2, §6

C=C(C)[C@@H]1CCC(C)=C[C@H]1c1c(O)cc(CCCCC)cc1O [CBD, cannabidiol]
effect on expression levels of IL-8 (IL-8 [1]): no effect | effect on expression levels of MMP-9 (MMP-9 [2]): modest | concentrations showing cytotoxic effects (HaCaT cells): above 5 μM | effect on release of MMP-9 (MMP-9 [3]): no effect | concentrations showing cytotoxic effects (HDF cells): above 2.5 μM | effect on expression levels of VEGF (VEGF): modest | IC50 (NF-kB): 2.85 µM | effect on release of IL-8 (IL-8 [4]): no effect
